As usually defined, the EC50 is the concentration needed to bring the measured effect to its halfway point.

These results are taken from article PMC9814779, “A triple farnesoid X receptor and peroxisome proliferator-activated receptor α/δ activator reverses hepatic fibrosis in diet-induced NASH in mice” (Communications Chemistry, 2020).

Series [1] has as its system diet-induced mouse model of NASH. The following applies: cited from earlier work.
The target in series [2] is T1, human PPARγ ligand-binding domain (Gal4 chimera) (Homo sapiens, UniProt P37231).
T1 construct: coding for the hinge region and LBD of the canonical isoform of the respective nuclear receptor; expressed in transfected cells; host or cells: HEK293T
T1 sequence (P37231 238-503 limits assumed): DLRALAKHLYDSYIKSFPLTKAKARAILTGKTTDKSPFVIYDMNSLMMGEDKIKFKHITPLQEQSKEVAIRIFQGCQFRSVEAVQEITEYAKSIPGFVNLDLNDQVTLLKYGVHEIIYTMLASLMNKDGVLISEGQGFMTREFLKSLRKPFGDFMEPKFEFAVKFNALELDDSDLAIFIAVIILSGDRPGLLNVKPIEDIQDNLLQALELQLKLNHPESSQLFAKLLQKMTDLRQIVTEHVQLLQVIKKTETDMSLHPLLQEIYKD
Description: Gal4 hybrid reporter gene assay, PPARγ. Also on record: Emax: dose or concentration left out as unconfirmed. Type of series: cell-based. In general terms: Reporter assays use an easily measured gene product as a stand-in for the process of interest.

Series [3] deals with T2, human FXR:retinoid X receptor (RXR) heterodimer (Homo sapiens, UniProt Q96RI1).
T2 construct: pcDNA3-hFXR[32] and pSG5-hRXR[33] served for receptor overexpression in the full-length FXR assay; expressed in transfected cells; host or cells: HeLa
T2 sequence (P19793 whole entry): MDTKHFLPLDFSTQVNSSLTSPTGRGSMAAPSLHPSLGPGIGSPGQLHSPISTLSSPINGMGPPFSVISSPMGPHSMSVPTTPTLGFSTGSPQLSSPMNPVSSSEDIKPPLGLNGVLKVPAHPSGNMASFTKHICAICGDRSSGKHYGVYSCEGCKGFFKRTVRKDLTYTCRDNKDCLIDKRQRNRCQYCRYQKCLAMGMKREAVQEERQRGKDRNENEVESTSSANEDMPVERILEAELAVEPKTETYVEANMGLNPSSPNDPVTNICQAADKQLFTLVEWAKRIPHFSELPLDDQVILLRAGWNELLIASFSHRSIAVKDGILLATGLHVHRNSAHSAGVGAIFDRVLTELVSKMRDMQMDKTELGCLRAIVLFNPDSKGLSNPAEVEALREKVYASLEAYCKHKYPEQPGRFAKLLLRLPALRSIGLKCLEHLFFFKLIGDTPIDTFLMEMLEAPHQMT
T2 sequence (Q96RI1 whole entry): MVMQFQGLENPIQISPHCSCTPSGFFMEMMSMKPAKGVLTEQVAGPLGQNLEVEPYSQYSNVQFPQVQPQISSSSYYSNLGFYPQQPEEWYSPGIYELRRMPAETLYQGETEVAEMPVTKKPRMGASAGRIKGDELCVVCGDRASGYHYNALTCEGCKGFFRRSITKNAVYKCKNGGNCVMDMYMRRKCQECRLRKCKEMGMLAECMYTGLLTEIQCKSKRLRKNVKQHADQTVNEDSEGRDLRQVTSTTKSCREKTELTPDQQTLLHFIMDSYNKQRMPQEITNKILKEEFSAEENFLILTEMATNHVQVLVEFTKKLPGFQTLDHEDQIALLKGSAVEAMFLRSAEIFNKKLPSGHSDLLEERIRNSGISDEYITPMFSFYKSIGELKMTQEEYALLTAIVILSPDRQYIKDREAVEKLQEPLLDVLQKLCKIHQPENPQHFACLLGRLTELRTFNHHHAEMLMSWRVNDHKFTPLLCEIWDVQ
Description: Full-length FXR reporter gene assay (BSEP response element) in HeLa cells. Type of series: cell-based. Further details: Emax: dose or concentration left out as unconfirmed.

The subject of series [4] is human full-length PPAR response element (PPRE) reporter. Description: Full-length PPAR response element (PPRE) reporter gene assay in HEK293T cells. Type of series: cell-based. To be noted: HEK-293T, mean ± SEM, n = 3. From the text:
For the hybrid reporter gene assays, the previously reported Gal4-fusion receptor plasmids pFA-CMV-hPPARα-LBD[29], pFA-CMV-hPPARδ-LBD[29], pFA-CMV-hPPARγ-LBD[29], pFA-CMV-hLXRα-LBD[30], pFA-CMV-hLXRβ-LBD[30], pFA-CMV-hRXRα-LBD[31], pFA-CMV-hRXRβ-LBD[31], pFA-CMV-hRXRγ-LBD[31], pFA-CMV-hRARα-LBD[31], pFA-CMV-hRARβ-LBD[31], pFA-CMV-hRARγ-LBD[31], pFA-CMV-hVDR-LBD[31], and pFA-CMV-hCAR-LBD[31] coding for the hinge region and LBD of the canonical isoform of the respective nuclear receptor were used. pFR-Luc (Stratagene) was used as reporter plasmid for Gal4 hybrid reporter gene assays. pcDNA3-hFXR[32] and pSG5-hRXR[33] served for receptor overexpression in the full-length FXR assay and pGL3basic (Promega Corporation, Fitchburg, WI, USA) with a shortened construct of the BSEP promoter cloned into the SacI/NheI cleavage site in front of the luciferase gene[34] was used as reporter. PPRE-pGL3[35] contains the human full-length PPRE (cloned into the SacI/NheI cleavage site in front of the luciferase gene) and was used as reporter plasmid for the full-length PPRE reporter gene assay. pRL-SV40 (Promega) was used in all assays for normalization of transfection efficiency and cell growth.
Before transfection, medium was changed to Opti-MEM without supplements. […] Luminescence was measured with a Spark 10 M luminometer (Tecan Deutschland GmbH). […]

Series [5] concerns FXR- and PPAR-regulated genes in mouse liver. Nature of the series: Pilot animal experiment: hepatic FXR- and PPAR-regulated mRNA expression. It counts as in vivo, mice. The following applies: single oral dose 10 mg/kg. The procedure: Nine male RjOrl:Swiss (CD-1) mice (38–41 g body weight, purchased from Janvier Labs, France) were used for the pilot in vivo study. […] Food and water were available ad libitum. The in-life phase was performed by the contract research organization Pharmacelsus (Saarbrücken, Germany). All experimental procedures were approved by and conducted in accordance with the regulations of the local Animal Welfare authorities (Landesamt für Gesundheit und Verbraucherschutz, Abteilung Lebensmittel- und Veterinärwesen, Saarbrücken). Six animals received a single oral dose of 10 mg/kg body weight of 41, and three animals received the vehicle. Water containing 1% hydroxypropyl methylcellulose (HPMC)/Tween 80 (99:1) served as vehicle.
Twelve or 18 hours after test compound application, mice were anesthetized under isoflurane and then sacrificed by cervical dislocation for tissue collection. Complete livers were obtained, immediately snap-frozen, and stored at −80 °C until further evaluation.
Liver tissue samples from mice were used to study the mRNA expression of FXR- and PPAR-regulated genes. To homogenize the tissue samples for qRT-PCR analysis, one-third of each liver was placed on a Falcon Cell Strainer with 40-μm pore size (BD Bioscience, Erembodegem, Belgium) in a 50-mL Falcon tube. Every tissue was rinsed with PBS buffer containing 10% FCS, penicillin (100 U/mL), and streptomycin (100 μg/mL) and pressed through the cell strainer until 5 mL cell suspension had been collected. The samples were centrifuged at 1200 rpm for 10 min at 4 °C. […] Two micrograms per sample of the extracted RNA were reverse-transcribed into cDNA using the High-Capacity cDNA Reverse Transcription Kit (4368814, Thermo Fischer Scientific, Inc.) according to the manufacturer’s protocol. mRNA expression was studied by quantitative real-time PCR analysis with a StepOnePlus System (Applied Biosystems) based on the 2^−ΔCT method (Supplementary Fig. 6) or the 2^−ΔΔCT method (Fig. 6) using Power SYBR Green PCR Master Mix (Life Technologies). […]

For `CC[C@H]1[C@@H](O)[C@@H]2[C@H](CC[C@]3(C)[C@@H]([C@H](C)CCC(=O)O)CC[C@@H]23)[C@@]2(C)CC[C@@H](O)C[C@@H]12` [OCA, 6α-ethylchenodeoxycholic acid, reference compound], the anti-steatotic effect entry in series [1] (OCA 30 mg/kg, OCA/elafibranor 30 mg/kg + 10 mg/kg, elafibranor 10 mg/kg) was “marked reductions in steatosis”. Further, the anti-fibrotic activity result in series [1] (equivalent, previously reported study) was “only weak anti-fibrotic activity compared to vehicle”.
For `CC(C)(C)c1ccc(C(=O)Nc2cccc(CCC(=O)O)c2)c(NC(=O)c2ccc(-c3ccco3)cc2)c1` [compound 41, 3-(3-[4-{tert-Butyl}-2-{4-(2-furyl)}benzamido]phenyl)propanoic acid], the EC50 in series [2] was found to be 2.4 ± 0.1 µM; in series [3] (HeLa, mean ± SEM, n = 3, read-out: EC50 [μM] FXR), 0.015 ± 0.002 µM; in series [4], 0.17 µM. For the same compound, the Emax in series [2] (read-out: max. rel. act. PPARγ) is 16%; in series [3] (HeLa, read-out: max. rel. act. FXR), 19%. In series [3] (reporter gene assay and mRNA expression levels), the “FXR activation efficacy compared to OCA” value is “approximately 1/5”. For the same compound, the “adverse effects, behaviour” value in series [5] is given as “no adverse effects”. Besides, the “hepatic expression of BSEP, SHP, LPL, PCK and CRAT, 12 h” value in series [5] (12 h after treatment, vs. vehicle) is “increased”. For the same compound, the “effect on FXR- and PPAR-regulated gene expression in livers, 18 h” value in series [5] (after 18 h) is listed as “significantly reduced”.
